Values quoted from earlier work, collected in US20080234352A1, “Controlled release solid dispersions” (EGALET A/S, priority 2001, published 2008).

details: administration of an IR formulation

Which “alpha-mediated vasodilatory effects (decreased peripheral resistance and blood pressure) evident within” value does the source give for `COc1ccccc1OCCNCC(O)COc1cccc2[nH]c3ccccc3c12` (racemic) [Carvedilol] here?
Its value is at most 30 min.

same assay, conditions: in vivo

Which binding to plasma does the source give for `COc1ccccc1OCCNCC(O)COc1cccc2[nH]c3ccccc3c12` (racemic) [Carvedilol] here?
Its binding to plasma is “highly bound”.

And the “dose excreted unchanged in the urine” value?
The value was “less than 2%”.

same assay, conditions: literature

For `COc1ccccc1OCCNCC(O)COc1cccc2[nH]c3ccccc3c12` (racemic) [Carvedilol], which dose linearity range is on record?
Its dose linearity range is 6.25 to 50 mg.

same assay, conditions: oral administration

For `COc1ccccc1OCCNCC(O)COc1cccc2[nH]c3ccccc3c12` (racemic) [Carvedilol], which “time to peak plasma concentrations” value is on record?
Its value is “one to two”.

same assay, conditions: timed-release capsules, study by Nolte et al

With `COc1ccccc1OCCNCC(O)COc1cccc2[nH]c3ccccc3c12` (racemic) [Carvedilol] as the compound, how does the “absorption in the large intestine, share of the total absorption” value read?
The value was “approximately 10%”.

details: no step given

With `O=C(O)C(O)c1ccccc1` (stereo not drawn) [Mandelic] as the compound, how does the pKa read?
The pKa was 3.36.

For `O=S(=O)(O)CCCN1CCN(CCO)CC1` [EPPS, 4-(2-Hydroxyethyl)-I-piperazinepropane sulfonic acid], which pKa is on record?
The pKa was 8.00.

For `O=C(O)c1ccccc1C(=O)O` [Phthalic], which pKa is on record?
The pKa was 2.90.

With `CN` [Methylamine] as the compound, how does the pKa read?
The pKa was 10.64.

Which pKa does the source give for `CN(C)C` [Trimethylamine] here?
Its pKa is 9.74.

same assay, conditions: pKa1

For `O=C(O)c1cccc(C(=O)O)c1C(=O)O` [Benzene-1,2,3-tricarboxylic (hemimellitic)], which pKa is on record?
The pKa was 2.98.

With `O=C(O)c1cc(C(=O)O)c(C(=O)O)cc1C(=O)O` [Benzene-1,2,4,5-tetracarboxylic (pyromellitic)] as the compound, how does the pKa read?
The pKa was 2.43.

With `C=C(CC(=O)O)C(=O)O` [Itaconic] as the compound, how does the pKa read?
The pKa was 3.84.

Which pKa does the source give for `O=C(O)CC(O)C(=O)O` (stereo not drawn) [Malic] here?
Its pKa is 3.40.

For `O=C(O)CC1(CC(=O)O)CCCC1` [I,I-Cyclopentanediacetic, I,I-Cyclopentanediacetic (3,3 tetramethylene glutaric acid)], which pKa is on record?
Its pKa is 3.82.

With `COc1cc2c(cc1OC)[C@@]13CCN4CC5=CCO[C@H]6CC(=O)N2[C@H]1[C@H]6[C@H]5C[C@H]43.O.O.O.O` [Brucine tetrahydrate] as the compound, how does the pKa read?
Its pKa is 2.30.

For `O=C(O)c1cc(C(=O)O)cc(C(=O)O)c1` [Benzene-1,3,5-tricarboxylic (trimesic)], which pKa is on record?
The pKa was 3.16.

same assay, conditions: pKa2

For `O=C(O)c1cccc(C(=O)O)c1C(=O)O` [Benzene-1,2,3-tricarboxylic (hemimellitic)], which pKa is on record?
Its pKa is 4.25.

With `O=S(=O)(O)CCCNC1CCCCC1` [CAPS, 3-Cyclohexylamino-I-propanesulfonic acid] as the compound, how does the pKa read?
Its pKa is 10.40.

With `O=C(O)CC(C(=O)O)C(CC(=O)O)C(=O)O` (stereo not drawn) [Butane-1,2,3,4-tetracarboxylic] as the compound, how does the pKa read?
Its pKa is 4.38.

With `O=C(O)c1cc(C(=O)O)c(C(=O)O)c(C(=O)O)c1C(=O)O` [Benzenepentacarboxylic] as the compound, how does the pKa read?
Its pKa is 2.95.

With `O=C(O)c1cc(C(=O)O)c(C(=O)O)cc1C(=O)O` [Benzene-1,2,4,5-tetracarboxylic (pyromellitic)] as the compound, how does the pKa read?
Its pKa is 3.13.

For `C=C(CC(=O)O)C(=O)O` [Itaconic], which pKa is on record?
The pKa was 5.55.

Which pKa does the source give for `O=C(O)CC(O)C(=O)O` (stereo not drawn) [Malic] here?
Its pKa is 5.05.

With `CC(CC(=O)O)(CC(=O)O)C(=O)O` [2-Methylpropane-1,2,3-triscarboxylic] as the compound, how does the pKa read?
Its pKa is 5.02.

For `O=C(O)CC1(CC(=O)O)CCCC1` [I,I-Cyclopentanediacetic, I,I-Cyclopentanediacetic (3,3 tetramethylene glutaric acid)], which pKa is on record?
Its pKa is 6.70.

With `COc1cc2c(cc1OC)[C@@]13CCN4CC5=CCO[C@H]6CC(=O)N2[C@H]1[C@H]6[C@H]5C[C@H]43.O.O.O.O` [Brucine tetrahydrate] as the compound, how does the pKa read?
Its pKa is 7.95.

For `O=C(O)c1cc(C(=O)O)cc(C(=O)O)c1` [Benzene-1,3,5-tricarboxylic (trimesic)], which pKa is on record?
The pKa was 3.98.

For `O=S(=O)(O)CCCNC(CO)(CO)CO` [TAPS, N-Tris(hydroxymethyl)methyl-2-aminopropane suifonic acid], which pKa is on record?
Its pKa is 8.40.

same assay, conditions: pKa3

With `O=C(O)c1cccc(C(=O)O)c1C(=O)O` [Benzene-1,2,3-tricarboxylic (hemimellitic)] as the compound, how does the pKa read?
Its pKa is 5.87.

Which pKa does the source give for `O=S(=O)(O)CCN1CCN(CCS(=O)(=O)O)CC1` [PIPES, 1,4-Piperazinebis-(ethanesulfonic acid)] here?
The pKa was 3.00.

For `O=C(O)CC(C(=O)O)C(CC(=O)O)C(=O)O` (stereo not drawn) [Butane-1,2,3,4-tetracarboxylic], which pKa is on record?
The pKa was 5.45.

Which pKa does the source give for `O=C(O)c1cc(C(=O)O)c(C(=O)O)c(C(=O)O)c1C(=O)O` [Benzenepentacarboxylic] here?
Its pKa is 3.94.

Which pKa does the source give for `O=C(O)c1cc(C(=O)O)c(C(=O)O)cc1C(=O)O` [Benzene-1,2,4,5-tetracarboxylic (pyromellitic)] here?
The pKa was 4.44.

With `CC(CC(=O)O)(CC(=O)O)C(=O)O` [2-Methylpropane-1,2,3-triscarboxylic] as the compound, how does the pKa read?
The pKa was 7.20.

For `O=C(O)c1cc(C(=O)O)cc(C(=O)O)c1` [Benzene-1,3,5-tricarboxylic (trimesic)], which pKa is on record?
Its pKa is 4.85.

same assay, conditions: pKa4

For `O=S(=O)(O)CCN1CCN(CCS(=O)(=O)O)CC1` [PIPES, 1,4-Piperazinebis-(ethanesulfonic acid)], which pKa is on record?
Its pKa is 6.8.

With `O=C(O)CC(C(=O)O)C(CC(=O)O)C(=O)O` (stereo not drawn) [Butane-1,2,3,4-tetracarboxylic] as the compound, how does the pKa read?
The pKa was 6.63.

With `O=C(O)c1cc(C(=O)O)c(C(=O)O)c(C(=O)O)c1C(=O)O` [Benzenepentacarboxylic] as the compound, how does the pKa read?
Its pKa is 5.07.

With `O=C(O)c1cc(C(=O)O)c(C(=O)O)cc1C(=O)O` [Benzene-1,2,4,5-tetracarboxylic (pyromellitic)] as the compound, how does the pKa read?
The pKa was 5.61.

same assay, conditions: pKa5

With `O=C(O)c1cc(C(=O)O)c(C(=O)O)c(C(=O)O)c1C(=O)O` [Benzenepentacarboxylic] as the compound, how does the pKa read?
Its pKa is 6.25.
